Laboratory results reported in patent US20110172217A1, “RING-FUSED MORPHOLINE DERIVATIVE HAVING PI3K-INHIBITING ACTIVITY” (Shionogi & Co., Ltd., priority 2008, published 2011).

Assays:
PI-3 kinase γ = PI-3 kinase γ (Homo sapiens, UniProt P48736); experiment: PI3Kγ inhibitory activity, PI3-kinase HTRF assay (inhibition ratio); type: biochemical; conditions: 0.5 h, compound at 50 μmol/L
In short: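 Human PI3Kγ was preincubated 10 min with compound and PIP2 substrate, then reacted 30 min at room temperature with ATP (40 μmol/L in the added solution); EDTA/biotin-PIP3 quenched. HTRF 665/620 nm ratio read after 18 h, normalized to no-compound (100%) and no-enzyme (0%) controls, gave % inhibition at 50 or 10 μmol/L compound.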

[1] = Solubility test in artificial intestinal juice pH 6.8; type: physicochemical; conditions: kinetic from dmso stock, artificial intestinal juice pH 6.8, 1% DMSO, 25° C.
Method: The solubility of a compound was determined under a condition in which 1% DMSO was added. 10 mmol/L compound solution was prepared using DMSO, and then 6 μL of the compound solution was added to 594 μL of artificial intestinal juice in pH 6.8 (to 250 mL of 0.2 mol/L potassium dihydrogen phosphate reagent solution was added 118 mL of 0.2 mol/L NaOH reagent solution and water to provide a final volume of 1000 mL). After standing at 25° C. for 16 hours, the mixed solution was filtered with suction. The filtrate was diluted twice with methanol/water (1/1), and then a concentration in the filtration was measured with HPLC or LC/MS/MS by the absolute calibration method.

CYP1A2 = molecular target: T1, CYP1A2 (Homo sapiens, UniProt P05177); experiment: CYP inhibition test, O-de-ethylation of 7-ethoxyresorufin; type: in vitro ADME; conditions: pooled human liver microsome; one of 5 kinds
T1 construct: enzyme: pooled human liver microsome 0.2 mg protein/mL; from tissue; host or cells: pooled human liver microsomes
T1 sequence (P05177 1-516): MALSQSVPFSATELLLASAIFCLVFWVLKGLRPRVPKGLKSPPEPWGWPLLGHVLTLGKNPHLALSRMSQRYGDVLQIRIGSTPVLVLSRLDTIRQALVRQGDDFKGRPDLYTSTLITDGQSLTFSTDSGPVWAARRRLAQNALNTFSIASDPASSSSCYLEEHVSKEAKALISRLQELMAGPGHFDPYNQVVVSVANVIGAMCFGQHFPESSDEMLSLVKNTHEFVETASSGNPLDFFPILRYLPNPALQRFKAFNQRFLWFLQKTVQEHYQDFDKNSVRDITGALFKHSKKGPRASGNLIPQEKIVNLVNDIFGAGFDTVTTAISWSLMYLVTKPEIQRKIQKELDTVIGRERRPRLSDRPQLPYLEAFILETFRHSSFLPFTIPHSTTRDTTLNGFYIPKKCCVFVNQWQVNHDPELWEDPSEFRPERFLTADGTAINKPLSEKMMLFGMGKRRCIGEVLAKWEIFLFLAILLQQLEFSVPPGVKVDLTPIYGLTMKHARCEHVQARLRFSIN
From the text: (§1) O-de-ethylation of 7-ethoxyresorufin (CYP1A2), methyl-hydroxylation of tolbutamide (CYP2C9), 4′-hydroxylation of mephenyloin (CYP2C19), O-demethylation of dextromethorphan (CYP2D6), and hydroxylation of terfenadine (CYP3A4), which are typical substrate for metabolic reactions of human main CYP5 molecular species (CYP1A2, 2C9, 2C19, 2D6, and 3A4), were adopted as indexes.
(§2) The reaction conditions are as follows: substrate: 0.5 μmol/L of ethoxyresorufin (CYP1A2), 100 μmol/L of tolbutamide (CYP2C9), 50 μmol/L of S-mephenyloin (CYP2C19), […] of dextromethorphan (CYP2D6), and 1 μmol/L of terfenadine (CYP3A4); reaction time; 15 minutes; reaction temperature: 37° C.; enzyme: pooled human liver microsome 0.2 mg protein/mL; test drug concentration: 1, 5, 10, and 20 μmol/L (4 points).
(§3) In a 96-well plate, as a reaction solution, five kinds of substrates, a human liver microsome, and a test drug were added to 50 mmol/L Hepes buffer solution in the aforementioned ratio. A coenzyme NADPH was added to start a metabolic reaction, which is an index. After reacting at 37° C. for 15 minutes, a solution of methanol/acetonitrile (1/1 (v/v)) was added to quench the reaction. After centrifugation at 3000 rpm for 15 minutes, resorufin (CYP1A2 metabolite) in the supernatant was quantitated with a fluorescence multilabel counter, and hydroxylated tolbutamide (CYP2C9 metabolite), 4′-hydroxylated mephenyloin (CYP2C19 metabolite), […], terfenadine in alcohol form (CYP3A4 metabolite) were quantitated with LC/MS/MS.
(§4) The case wherein only DMSO (a solvent which dissolved a drug) was added to a reaction system was defined as a control (100%). When a test drug solution was added, the remaining activity (%) at each concentration was calculated, and then IC50 was calculated with a concentration and an inhibition ratio by an inverse estimation using a logistic model.

CYP2C19 = molecular target: T2, CYP2C19 (Homo sapiens, UniProt P33261); experiment: CYP inhibition test, 4′-hydroxylation of mephenyloin; type: in vitro ADME; conditions: pooled human liver microsome; one of 5 kinds
T2 construct: enzyme: pooled human liver microsome 0.2 mg protein/mL; from tissue; host or cells: pooled human liver microsomes
T2 sequence (P33261 whole entry): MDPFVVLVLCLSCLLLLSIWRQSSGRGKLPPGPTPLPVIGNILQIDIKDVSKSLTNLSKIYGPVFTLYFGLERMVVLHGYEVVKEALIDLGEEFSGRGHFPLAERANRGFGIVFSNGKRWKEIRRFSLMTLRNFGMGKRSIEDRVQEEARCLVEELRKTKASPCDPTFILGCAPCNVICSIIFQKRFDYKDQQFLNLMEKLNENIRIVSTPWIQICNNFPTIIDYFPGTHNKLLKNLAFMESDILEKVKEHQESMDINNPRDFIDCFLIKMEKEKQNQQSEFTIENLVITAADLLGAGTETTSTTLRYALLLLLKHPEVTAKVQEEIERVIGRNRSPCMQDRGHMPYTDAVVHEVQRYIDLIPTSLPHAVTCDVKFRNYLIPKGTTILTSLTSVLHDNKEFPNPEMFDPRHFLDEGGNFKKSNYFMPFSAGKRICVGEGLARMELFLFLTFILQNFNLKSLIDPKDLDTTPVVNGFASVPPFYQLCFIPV
From the text: as §1, §2, §3, §4

CYP2C9 = molecular target: T3, CYP2C9 (Homo sapiens, UniProt P11712); experiment: CYP inhibition test, methyl-hydroxylation of tolbutamide; type: in vitro ADME; conditions: pooled human liver microsome; one of 5 kinds
T3 construct: enzyme: pooled human liver microsome 0.2 mg protein/mL; from tissue; host or cells: pooled human liver microsomes
T3 sequence (P11712 whole entry): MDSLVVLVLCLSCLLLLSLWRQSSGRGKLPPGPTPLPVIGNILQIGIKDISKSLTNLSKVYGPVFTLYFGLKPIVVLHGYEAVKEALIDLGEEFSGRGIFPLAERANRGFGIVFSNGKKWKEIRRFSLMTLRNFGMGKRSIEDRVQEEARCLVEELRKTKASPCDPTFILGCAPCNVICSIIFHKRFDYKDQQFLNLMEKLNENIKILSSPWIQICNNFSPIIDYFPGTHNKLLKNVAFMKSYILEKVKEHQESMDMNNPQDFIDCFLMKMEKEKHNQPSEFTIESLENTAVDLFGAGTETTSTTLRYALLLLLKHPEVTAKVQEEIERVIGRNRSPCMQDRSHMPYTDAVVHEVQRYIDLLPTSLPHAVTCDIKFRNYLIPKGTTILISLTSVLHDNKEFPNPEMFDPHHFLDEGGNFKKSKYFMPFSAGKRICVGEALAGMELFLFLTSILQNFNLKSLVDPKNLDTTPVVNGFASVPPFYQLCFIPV
From the text: as §1, §2, §3, §4

[2] = Metabolic stability test, pooled human liver microsome; type: in vitro ADME; conditions: 2 μmol/L compound; human liver microsome 0.5 mg protein/mL, NADPH, 37° C.
Method: After a subject compound was reacted for a certain time using a commercially available pooled human liver microsome, a reacted sample and an unreacted sample are compared to calculate a survival ratio, and then the degree of metabolism in the liver was evaluated.
0.2 mL of a buffer solution (50 mmol/L of Tris-HCl in pH 7.4, 150 mmol/L of potassium chloride, and 10 mmol/L of magnesium chloride) containing a human liver microsome of 0.5 mg protein/mL was reacted in the presence of 1 mmol/L NADPH at 37° C. for 0 or 30 minutes (oxidative reaction). After reacting, 50 μL of the reaction solution was added to 100 μL of a solution of methanol/acetonitrile (1/1 (v/v)), mixed, and then centrifuged at 3000 rpm for 15 minutes. The test compound in the supernatant was quantitated with LC/MS/MS. The amount of the compound at a reaction time of 0 minute was defined as 100% and, based on that, the percentage of the test compound remained after reacting for 30 minutes was calculated.

CYP2D6 = molecular target: T4, CYP2D6 (Homo sapiens, UniProt P10635); experiment: CYP inhibition test, O-demethylation of dextromethorphan; type: in vitro ADME; conditions: pooled human liver microsome; one of 5 kinds
T4 construct: enzyme: pooled human liver microsome 0.2 mg protein/mL; from tissue; host or cells: pooled human liver microsomes
T4 sequence (P10635 whole entry): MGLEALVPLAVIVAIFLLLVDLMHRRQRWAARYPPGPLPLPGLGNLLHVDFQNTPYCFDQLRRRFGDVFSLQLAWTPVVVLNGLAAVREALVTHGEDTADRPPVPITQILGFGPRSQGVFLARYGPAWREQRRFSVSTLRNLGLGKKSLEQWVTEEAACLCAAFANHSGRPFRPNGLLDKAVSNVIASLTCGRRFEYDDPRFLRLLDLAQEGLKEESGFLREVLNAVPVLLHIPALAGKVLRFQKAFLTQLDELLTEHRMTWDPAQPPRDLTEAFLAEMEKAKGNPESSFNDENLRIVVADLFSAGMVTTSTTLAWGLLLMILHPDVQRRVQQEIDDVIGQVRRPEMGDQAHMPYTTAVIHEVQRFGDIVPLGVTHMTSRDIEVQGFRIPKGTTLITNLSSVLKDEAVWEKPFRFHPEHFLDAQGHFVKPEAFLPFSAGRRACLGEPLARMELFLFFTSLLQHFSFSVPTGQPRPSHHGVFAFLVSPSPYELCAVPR
From the text: as §1, §2, §3, §4

CYP3A4 = molecular target: T5, CYP3A4 (Homo sapiens, UniProt P08684); experiment: CYP inhibition test, hydroxylation of terfenadine; type: in vitro ADME; conditions: pooled human liver microsome; one of 5 kinds
T5 construct: enzyme: pooled human liver microsome 0.2 mg protein/mL; from tissue; host or cells: pooled human liver microsomes
T5 sequence (P08684 whole entry): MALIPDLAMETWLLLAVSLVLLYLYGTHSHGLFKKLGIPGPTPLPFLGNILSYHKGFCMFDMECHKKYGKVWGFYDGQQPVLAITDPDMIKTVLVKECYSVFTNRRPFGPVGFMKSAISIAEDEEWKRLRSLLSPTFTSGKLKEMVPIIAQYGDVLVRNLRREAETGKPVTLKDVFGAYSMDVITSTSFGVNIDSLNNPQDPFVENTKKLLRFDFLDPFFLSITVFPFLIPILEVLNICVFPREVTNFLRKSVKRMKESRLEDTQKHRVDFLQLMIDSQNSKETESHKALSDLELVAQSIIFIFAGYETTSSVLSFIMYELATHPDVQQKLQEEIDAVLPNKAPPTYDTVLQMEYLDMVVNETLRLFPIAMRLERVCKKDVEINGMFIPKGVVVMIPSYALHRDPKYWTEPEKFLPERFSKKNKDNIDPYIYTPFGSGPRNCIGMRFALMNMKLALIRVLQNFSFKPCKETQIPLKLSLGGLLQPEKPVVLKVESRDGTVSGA
From the text: as §1, §2, §3, §4

[3] = molecular target: T6, human ether-a-go-go related gene (hERG) channel (Homo sapiens, UniProt Q12809); experiment: hERG test, whole-cell patch-clamp, IKr; type: cell-based; conditions: 1 μmol/L compound; HEK293 cell expressing hERG
T6 construct: expressed in transfected cells; host or cells: HEK293
T6 sequence (Q12809 whole entry): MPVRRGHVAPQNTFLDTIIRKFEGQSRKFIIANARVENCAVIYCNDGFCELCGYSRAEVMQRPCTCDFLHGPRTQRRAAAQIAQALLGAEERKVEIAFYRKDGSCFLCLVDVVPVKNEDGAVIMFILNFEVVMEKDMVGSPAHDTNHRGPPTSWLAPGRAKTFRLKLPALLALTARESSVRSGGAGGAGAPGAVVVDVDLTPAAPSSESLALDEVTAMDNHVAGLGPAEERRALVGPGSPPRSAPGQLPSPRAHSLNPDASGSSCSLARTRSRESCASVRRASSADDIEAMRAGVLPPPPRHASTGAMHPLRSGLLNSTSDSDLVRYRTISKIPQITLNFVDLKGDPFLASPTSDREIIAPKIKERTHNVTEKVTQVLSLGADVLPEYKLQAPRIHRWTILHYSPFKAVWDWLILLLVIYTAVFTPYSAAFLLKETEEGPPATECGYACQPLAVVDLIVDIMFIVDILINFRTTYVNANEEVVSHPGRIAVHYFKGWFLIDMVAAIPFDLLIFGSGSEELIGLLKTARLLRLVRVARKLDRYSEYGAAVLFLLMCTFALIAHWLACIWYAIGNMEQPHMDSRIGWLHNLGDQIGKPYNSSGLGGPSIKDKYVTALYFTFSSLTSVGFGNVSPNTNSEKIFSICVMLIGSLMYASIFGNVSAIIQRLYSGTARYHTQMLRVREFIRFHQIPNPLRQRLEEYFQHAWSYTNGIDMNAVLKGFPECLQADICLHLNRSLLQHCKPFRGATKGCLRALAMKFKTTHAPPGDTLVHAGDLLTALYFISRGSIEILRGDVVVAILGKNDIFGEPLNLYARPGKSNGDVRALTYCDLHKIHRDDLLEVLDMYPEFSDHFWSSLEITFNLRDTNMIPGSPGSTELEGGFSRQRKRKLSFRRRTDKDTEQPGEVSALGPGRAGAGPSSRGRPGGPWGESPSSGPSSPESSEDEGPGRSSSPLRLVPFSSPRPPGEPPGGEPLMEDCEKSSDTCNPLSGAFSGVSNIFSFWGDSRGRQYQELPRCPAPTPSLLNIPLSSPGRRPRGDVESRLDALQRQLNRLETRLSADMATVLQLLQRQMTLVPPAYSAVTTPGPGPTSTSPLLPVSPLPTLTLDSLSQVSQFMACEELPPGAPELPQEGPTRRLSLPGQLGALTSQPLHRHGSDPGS
From the text: For the purpose of risk evaluation of QT interval extension of electrocardiogram, the activity on delayed rectification K^+ current (IKr), which plays an important role in a cardiac ventricle repolarization process, was examined using the HEK293 cell that was made to express human ether-a-go-go related gene (hERG) channel.
Using an automatic patch-clamp system (PatchXpress 7000A, Axon Instruments Inc.), by a whole-cell patch-clamp method, after the cell was maintained at a membrane potential of −80 mV, IKr induced upon applying depolarizing stimulation of +50 mV for 2 seconds and further applying repolarizing stimulation of −50 mV for 2 seconds was recorded. After generated electric current became stable, a test substance dissolved at an intended concentration in extracellular fluid (137 mmol/L NaCl, 4 mmol/L KCl, 1.8 mmol/L CaCl2.2H2O, 1 mmol/L MgCl2.6H2O, 10 mmol/L glucose, 10 mmol/L HEPES (4-(2-hydroxyethyl)-1-piperazineethanesulfonic acid), pH=7.4) was applied to the cell for 10 minutes under room temperature condition. From the obtained IKr, the absolute value of the maximum tail current was measured using analysis software (DataXpress ver. 1, Molecular Devices Corporation) and the value of the electric current in a maintained membrane potential as baseline. Moreover, an inhibition ratio for the maximum tail current prior to the application of the test substance was calculated and then compared with a group of media-application (0.1% dimethylsulfoxide solution) to evaluate influence of the test substance on IKr.

[4] = test system: Salmonella typhimurium TA98 line, TA100 line; experiment: Fat Test (mutagenicity in Salmonella typhimurium); type: cell-based; set-up: key: When the mutagenicity is negative, the compound is shown as (−); When positive, the compound is shown as (+); conditions: TA98 and TA100 lines, non-metabolism-activation and metabolism-activation conditions
Method: 20 μL of Salmonella enterica subsp. typhimurium (Salmonella typhimurium TA98 line, TA100 line) cryopreserved was inoculated to 10 mL of liquid nutrient medium (2.5% Oxoid nutrient broth No. 2) and then precultured at 37° C. for 10 hours with shaking. Regarding TA98 line, after 9 mL of a bacterial suspension was centrifuged (2000×g, 10 minutes) to remove the culture solution, the bacteria was suspended in 9 mL of Micro F buffer solution (K2HPO4: 3.5 g/L, KH2PO4: 1 g/L, (NH4)2SO4: 1 g/L, tri-sodium citric acid dihydrate: 0.25 g/L, MgSO4.7H2O: 0.1 g/L), and then added to 110 mL of Exposure media (Micro F buffer solution containing biotin: 8 μg/mL, histidine: 0.2 μg/mL, glucose: 8 mg/mL). Regarding TA 100 line, 120 mL of Exposure media was added to 3.16 mL of the bacterial suspension to prepare a test bacterial suspension. 12 μL of a solution of a test substance in DMSO (diluted eight times in a common ratio of 2 from the maximum dose of 50 mg/mL); 12 μL of DMSO as a negative control; 50 μg/mL 4-nitroquinoline-1-oxide solution in DMSO for TA98 line or 0.25 μg/mL 2-(2-furyl)-3-(5-nitro-2-furyl)acrylamide solution in DMSO as a positive control for TA 100 line in the case of a non-metabolism-activation condition; 12 μL of 40 μg/mL 2-aminoanthracene solution in DMSO for TA98 line or 20 μg/mL of 2-aminoanthracene solution in DMSO for TA100 line in the case of a metabolism-activation condition; were each mixed with 588 μL of the test bacterial suspension (in the case of a metabolism activation condition, a mixed solution of 498 μL of the test bacterial suspension and 90 μL S9 mix) and then cultured at 37° C. at 90 minutes with shaking. 460 μL of the bacterial suspension to which a test substance was exposed was mixed with 2300 μL of Indicator media (a Micro F buffer solution containing 8 μg/mL biotin, 0.2 μg/mL histidine, 8 mg/mL glucose, and 37.5 μg/mL bromocresol purple). […] Thus, in 48 wells per dose, the number of the bacteria-proliferation wells in which the color changed to yellow was counted, compared with a group of negative controls, and then evaluated. […]

PI-3 kinase γ, sequence (P48736 whole entry): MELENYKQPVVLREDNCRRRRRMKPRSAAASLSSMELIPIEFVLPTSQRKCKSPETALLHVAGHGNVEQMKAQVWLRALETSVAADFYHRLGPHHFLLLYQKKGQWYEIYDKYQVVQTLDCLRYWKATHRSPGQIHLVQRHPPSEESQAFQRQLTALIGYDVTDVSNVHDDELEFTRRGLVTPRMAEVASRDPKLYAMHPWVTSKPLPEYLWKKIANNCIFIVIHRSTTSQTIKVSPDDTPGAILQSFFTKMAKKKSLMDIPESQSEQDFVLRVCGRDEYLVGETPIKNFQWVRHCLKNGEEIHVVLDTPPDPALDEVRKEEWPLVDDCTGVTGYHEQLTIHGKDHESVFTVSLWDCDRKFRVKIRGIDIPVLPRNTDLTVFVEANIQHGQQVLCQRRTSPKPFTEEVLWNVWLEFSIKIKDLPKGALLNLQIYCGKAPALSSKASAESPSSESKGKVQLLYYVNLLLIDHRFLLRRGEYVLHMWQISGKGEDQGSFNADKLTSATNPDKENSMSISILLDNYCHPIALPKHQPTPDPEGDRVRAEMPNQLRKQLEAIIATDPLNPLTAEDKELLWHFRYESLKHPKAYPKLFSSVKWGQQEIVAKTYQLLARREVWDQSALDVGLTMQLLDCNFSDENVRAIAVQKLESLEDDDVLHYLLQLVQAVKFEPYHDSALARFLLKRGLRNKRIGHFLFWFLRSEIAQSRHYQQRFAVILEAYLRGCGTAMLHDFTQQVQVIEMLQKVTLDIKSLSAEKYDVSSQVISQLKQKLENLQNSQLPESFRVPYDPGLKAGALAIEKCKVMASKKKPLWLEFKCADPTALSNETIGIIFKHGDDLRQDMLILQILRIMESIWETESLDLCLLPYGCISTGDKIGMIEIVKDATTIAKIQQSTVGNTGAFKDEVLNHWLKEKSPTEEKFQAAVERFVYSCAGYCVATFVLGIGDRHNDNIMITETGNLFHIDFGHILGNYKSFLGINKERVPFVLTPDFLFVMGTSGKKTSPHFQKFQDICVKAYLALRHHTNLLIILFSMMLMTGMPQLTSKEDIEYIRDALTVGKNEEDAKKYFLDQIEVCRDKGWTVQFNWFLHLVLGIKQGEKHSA

Row | SMILES | inhibition at 50 µM (PI-3 kinase γ) [%] | solubility at 16 h [1] [µM] | IC50 (CYP1A2) [µM] | IC50 (CYP2C19) [µM] | IC50 (CYP2C9) [µM] | percentage of test compound remained after reacting for 30 minutes [2] [%] | IC50 (CYP2D6) [µM] | IC50 (CYP3A4) [µM] | hERG inhibition ratio for the maximum tail current (IKr) [3] [%] | mutagenicity [4]
1 | O=C(O)CNC(=O)Nc1cnc2c(c1)OCCN2C(=O)Nc1ccccc1 [Compound I-239] | ≥ 95 | > 50 | > 20 | > 20 | > 20 | 100 | > 20 | > 20 | – | –
2 | O=C(O)c1cccc(Nc2cnc3c(c2)OCCN3C(=O)Nc2ccccc2)c1 [Compound I-138] | – | > 50 | – | – | – | – | – | – | 11.1 | (−)
3 | CC1(C)SC(N2CCOc3cccnc32)=NC1=O [Compound I-49] | ≥ 95 | > 50 | > 20 | > 20 | > 20 | 90.1 | > 20 | > 20 | – | –
4 | CC1SC(N2CCOc3cccnc32)=NC1=O (stereo not shown) [Compound I-1] | 87 | > 50 | – | – | – | – | – | – | – | (−)
